From EP2794556B1, “BIS-(ARYL/HETEROARYL)-METHYLENE COMPOUNDS, PHARMACEUTICAL COMPOSITIONS CONTAINING SAME AND THEIR USE FOR TREATING CANCER” (Gleason, James L., priority 2011, dated 2013)

Key:
LOX IMVI = assay: NCI 60 cell panel
KM12 = assay: NCI 60 cell panel
SCC4 cells = assay: EdU cell growth assay
Procedure: EdU cell growth assay. Click-iT EdU Alexa Fluor high-throughput imaging (HCS) assay for cell proliferation. HCS assays were performed on AT84 mouse squamous carcinoma cell line (ATCC) following the manufacturer's instruction (Molecular Probes, Invitrogen). […] All samples were in triplicate.

SF-295 = assay: NCI 60 cell panel
SNB-75 = assay: NCI 60 cell panel
MOLT-4 = assay: NCI 60 cell panel
NCI/ADR-RES = assay: NCI 60 cell panel
ACHN = assay: NCI 60 cell panel
MDA-MB-468 = assay: NCI 60 cell panel
SK-MEL-5 = assay: NCI 60 cell panel
TK-10 = assay: NCI 60 cell panel
A498 = assay: NCI 60 cell panel
SK-MEL-28 = assay: NCI 60 cell panel
DU-145 = assay: NCI 60 cell panel
SF-539 = assay: NCI 60 cell panel
T-47D = assay: NCI 60 cell panel
HCT-116 = assay: NCI 60 cell panel
CAKI-1 = assay: NCI 60 cell panel

Compound: CCC(CC)(c1ccc(OCC(=O)NO)c(C)c1)c1ccc(OCC(O)C(C)(C)C)c(C)c1 (racemic) [JF-B01, N-Hydroxy-2-(4-(3-(4-(2-hydroxy-3,3-dimethylbutoxy)-3-methylphenyl)pentan-3-yl)-2-methylphenoxy)acetamide]
- GI50 (LOX IMVI; Homo sapiens): 0.183 µM
- CC50 (LOX IMVI; Homo sapiens, read-out: LC50): 0.602 µM
- TGI (LOX IMVI; Melanoma): 3.32E-7
- TGI (KM12; Colon Cancer, KM12): 8.17E-6
- GI50 (KM12; Homo sapiens, KM12): 2.15 µM
- CC50 (KM12; Homo sapiens, KM12, read-out: LC50): 28.8 µM
- inhibition of proliferation, EdU incorporation (SCC4 cells; 1,25D-resistant SCC4 cells, Fig. 2e, f): completely
- EdU incorporation at higher concentrations (SCC4 cells; SCC4 cells, higher concentrations): completely abolished EdU incorporation
- TGI (SF-295; CNS Cancer, SF-295): 2.02E-5
- GI50 (SF-295; Homo sapiens, SF-295): 7.61 µM
- CC50 (SF-295; Homo sapiens, SF-295, read-out: LC50): 44.9 µM
- TGI (SNB-75; CNS Cancer, SNB-75): 1.90E-5
- GI50 (SNB-75; Homo sapiens, SNB-75): 0.0482 µM
- CC50 (SNB-75; Homo sapiens, SNB-75, read-out: LC50): 62 µM
- GI50 (MOLT-4; Homo sapiens, MOLT-4): 1.15 µM
- CC50 (MOLT-4; Homo sapiens, MOLT-4, read-out: LC50): 40.9 µM
- TGI (MOLT-4; Leukemia, MOLT-4): 4.60E-6
- GI50 (NCI/ADR-RES; Homo sapiens): 4.39 µM
- CC50 (NCI/ADR-RES; Homo sapiens, read-out: LC50): 41.9 µM
- TGI (NCI/ADR-RES; Ovarian Cancer): 1.67E-5
- GI50 (ACHN; Homo sapiens): 3.2 µM
- CC50 (ACHN; Homo sapiens, read-out: LC50): 35.6 µM
- TGI (ACHN; Renal Cancer): 1.27E-5
- TGI (MDA-MB-468; Breast Cancer, MDA-MB-468): 3.53E-6
- GI50 (MDA-MB-468; Homo sapiens, MDA-MB-468): 1.57 µM
- CC50 (MDA-MB-468; Homo sapiens, MDA-MB-468, read-out: LC50): 7.92 µM
- GI50 (SK-MEL-5; Homo sapiens, SK-MEL-5): 1.39 µM
- CC50 (SK-MEL-5; Homo sapiens, SK-MEL-5, read-out: LC50): 5.58 µM
- TGI (SK-MEL-5; Melanoma, SK-MEL-5): 2.79E-6
- GI50 (TK-10; Homo sapiens, TK-10): 2.83 µM
- CC50 (TK-10; Homo sapiens, TK-10, read-out: LC50): 42.8 µM
- TGI (TK-10; Renal Cancer, TK-10): 1.60E-5
- GI50 (A498; Homo sapiens, A498): 4.56 µM
- CC50 (A498; Homo sapiens, A498, read-out: LC50): 45.6 µM
- TGI (A498; Renal Cancer, A498): 2.08E-5
- GI50 (SK-MEL-28; Homo sapiens, SK-MEL-28): 4.75 µM
- CC50 (SK-MEL-28; Homo sapiens, SK-MEL-28, read-out: LC50): 42.5 µM
- TGI (SK-MEL-28; Melanoma, SK-MEL-28): 1.75E-5
- GI50 (DU-145; Homo sapiens, DU-145): 13 µM
- CC50 (DU-145; Homo sapiens, DU-145, read-out: LC50): 50.6 µM
- TGI (DU-145; Prostate Cancer, DU-145): 2.56E-5
- TGI (SF-539; CNS Cancer, SF-539): 2.74E-5
- GI50 (SF-539; Homo sapiens, SF-539): 13.7 µM
- CC50 (SF-539; Homo sapiens, SF-539, read-out: LC50): 54.9 µM
- TGI (T-47D; Breast Cancer, T-47D): 6.69E-6
- GI50 (T-47D; Homo sapiens, T47D): 2.21 µM
- CC50 (T-47D; Homo sapiens, T47D, read-out: LC50): 27.1 µM
- TGI (HCT-116; Colon Cancer, HCT-116): 1.09E-5
- GI50 (HCT-116; Homo sapiens, HCT-116): 2.13 µM
- CC50 (HCT-116; Homo sapiens, HCT-116, read-out: LC50): 33.4 µM
- GI50 (CAKI-1; Homo sapiens, CAKI-1): 4.98 µM
- CC50 (CAKI-1; Homo sapiens, CAKI-1, read-out: LC50): 41.3 µM
- TGI (CAKI-1; Renal Cancer, CAKI-1): 1.71E-5
